Measured values: ChEMBL document CHEMBL1201862, “PubChem BioAssay data set” (2004)
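Dose response: 5 concentrations. Exposure: 48 h. Format: 96-well plates. Endpoint: linear interpolation; highest concentration if not reached. Here, GI50 denotes the concentration required for 50% inhibition of growth.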 Active and inactive are the calls of the source. No stated cut-off is given here; in the data, active = GI50 up to about 1.1 µM and inactive = higher.

Columns and labels:
Test in all cases: NCI anticancer screen, dose series, 48 h
TK-10 = test system: TK-10
UACC-257 = test system: UACC-257
SK-MEL-5 = test system: SK-MEL-5
A498 = test system: A498
HOP-92 = test system: HOP-92
SK-OV-3 = test system: SK-OV-3
RPMI-8226 = test system: RPMI-8226
K562 = test system: K562
SF-268 = test system: SF-268
NCI-H460 = test system: NCI-H460
SF-539 = test system: SF-539
SK-MEL-2 = test system: SK-MEL-2
SR = test system: SR
A549 = test system: A549
SNB-75 = test system: SNB-75
OVCAR-4 = test system: OVCAR-4

Compound	GI50 (TK-10)	GI50 (UACC-257)	GI50 (SK-MEL-5)	GI50 (A498)	GI50 (HOP-92)	GI50 (SK-OV-3)	GI50 (RPMI-8226)	GI50 (K562)	GI50 (SF-268)	GI50 (NCI-H460)	GI50 (SF-539)	GI50 (SK-MEL-2)	GI50 (SR)	GI50 (A549)	GI50 (SNB-75)	GI50 (OVCAR-4)
O=C(NC(Cc1ccccc1)C(=O)CCl)OCc1ccccc1 (configuration not stated)	15 µM (inactive)	13 µM (inactive)	13.4 µM (inactive)	14.1 µM (inactive)	13 µM (inactive)	14.4 µM (inactive)	4.06 µM (inactive)	3.2 µM (inactive)	5.05 µM (inactive)	5.74 µM (inactive)	4.76 µM (inactive)	10.3 µM (inactive)	6.24 µM (inactive)	18.2 µM (inactive)	11.5 µM (inactive)	–
COC(OC)c1cc2c(cc1C=O)OCO2	> 100 µM (inactive)	> 100 µM (inactive)	30.6 µM (inactive)	–	80.7 µM (inactive)	43.8 µM (inactive)	–	64.9 µM (inactive)	> 100 µM (inactive)	> 100 µM (inactive)	> 100 µM (inactive)	> 100 µM (inactive)	> 100 µM (inactive)	> 100 µM (inactive)	21.2 µM (inactive)	> 100 µM (inactive)
CNS(=O)(=O)NN(C)S(=O)(=O)c1ccc(C)cc1	> 100 µM (inactive)	> 100 µM (inactive)	> 100 µM (inactive)	> 100 µM (inactive)	> 100 µM (inactive)	> 100 µM (inactive)	> 100 µM (inactive)	> 10 µM (inactive)	> 100 µM (inactive)	> 100 µM (inactive)	> 100 µM (inactive)	> 100 µM (inactive)	> 100 µM (inactive)	> 100 µM (inactive)	–	> 100 µM (inactive)
COc1ccc(C(=O)Cc2cc(OC)ccc2OC)cc1	> 100 µM (inactive)	> 100 µM (inactive)	> 100 µM (inactive)	39.2 µM (inactive)	–	> 100 µM (inactive)	75.3 µM (inactive)	> 100 µM (inactive)	61.4 µM (inactive)	> 100 µM (inactive)	> 100 µM (inactive)	> 100 µM (inactive)	> 100 µM (inactive)	> 100 µM (inactive)	29 µM (inactive)	> 100 µM (inactive)
N#CCC(=O)N/N=C1/C(=O)N(c2cc(Cl)ccc2Cl)C(=O)C(=O)C1c1nc2ccccc2s1 (configuration not stated)	81.8 µM (inactive)	> 100 µM (inactive)	> 100 µM (inactive)	> 100 µM (inactive)	19.8 µM (inactive)	> 100 µM (inactive)	56.8 µM (inactive)	> 100 µM (inactive)	88.3 µM (inactive)	95.7 µM (inactive)	> 100 µM (inactive)	37.9 µM (inactive)	–	> 100 µM (inactive)	38 µM (inactive)	> 100 µM (inactive)
COc1cccc(C2SCc3nc4ccccc4n32)c1 (configuration not stated)	14.7 µM (inactive)	44.3 µM (inactive)	21.1 µM (inactive)	38 µM (inactive)	12.2 µM (inactive)	65.3 µM (inactive)	–	45.4 µM (inactive)	73.1 µM (inactive)	> 100 µM (inactive)	> 100 µM (inactive)	56.2 µM (inactive)	–	34.8 µM (inactive)	53 µM (inactive)	> 100 µM (inactive)
CCC(C)n1c(C)nc2c1C(=O)c1ccccc1C2=O (configuration not stated)	94.6 µM (inactive)	27.9 µM (inactive)	26.9 µM (inactive)	–	22.1 µM (inactive)	> 100 µM (inactive)	–	34 µM (inactive)	30.8 µM (inactive)	19.3 µM (inactive)	32.7 µM (inactive)	> 100 µM (inactive)	47.5 µM (inactive)	33.9 µM (inactive)	42.8 µM (inactive)	73.1 µM (inactive)
COc1ccc(C2C(Cl)C(=O)N2NC(=O)Cc2ccccc2)cc1OC (configuration not stated)	> 100 µM (inactive)	> 100 µM (inactive)	> 100 µM (inactive)	–	–	> 100 µM (inactive)	> 100 µM (inactive)	> 100 µM (inactive)	> 100 µM (inactive)	> 100 µM (inactive)	–	> 100 µM (inactive)	> 100 µM (inactive)	> 100 µM (inactive)	> 100 µM (inactive)	> 100 µM (inactive)
CCOc1cc(/C=C/C=C/c2ccc(N(C)C)cc2)[s+]c2ccccc12	33.2 µM (inactive)	23.3 µM (inactive)	11.8 µM (inactive)	28.2 µM (inactive)	23.5 µM (inactive)	34 µM (inactive)	3.2 µM (inactive)	4.85 µM (inactive)	18.4 µM (inactive)	18.6 µM (inactive)	14.1 µM (inactive)	20.4 µM (inactive)	–	11.4 µM (inactive)	28.4 µM (inactive)	16 µM (inactive)
Cc1coc2c1C(=O)C(=O)c1ccccc1-2	1.9 µM (inactive)	0.21 µM (active)	0.56 µM (active)	1.83 µM (inactive)	0.401 µM (active)	1.76 µM (inactive)	–	0.335 µM (active)	–	1.77 µM (inactive)	1.52 µM (inactive)	1.87 µM (inactive)	1.38 µM (inactive)	2.04 µM (inactive)	1.72 µM (inactive)	1.82 µM (inactive)
Cc1nc2c(=O)[nH]c(=O)n(C)c2[nH]c1=O.c1ccncc1	> 100 µM (inactive)	> 100 µM (inactive)	> 100 µM (inactive)	> 100 µM (inactive)	> 100 µM (inactive)	> 100 µM (inactive)	> 100 µM (inactive)	> 100 µM (inactive)	> 100 µM (inactive)	> 100 µM (inactive)	–	> 100 µM (inactive)	> 100 µM (inactive)	> 100 µM (inactive)	> 100 µM (inactive)	> 100 µM (inactive)
O=c1c2cccnc2ncn1CCCN1CCCCC1	> 100 µM (inactive)	–	> 100 µM (inactive)	–	> 100 µM (inactive)	> 100 µM (inactive)	–	> 100 µM (inactive)	> 100 µM (inactive)	> 100 µM (inactive)	> 100 µM (inactive)	> 100 µM (inactive)	> 100 µM (inactive)	> 100 µM (inactive)	> 100 µM (inactive)	> 100 µM (inactive)
CN1CN(C(=O)N2CN(C)C(=O)N(C)C2)CN(C)C1=O	–	> 100 µM (inactive)	–	> 100 µM (inactive)	–	> 100 µM (inactive)	> 100 µM (inactive)	> 100 µM (inactive)	> 100 µM (inactive)	–	> 100 µM (inactive)	> 100 µM (inactive)	–	> 100 µM (inactive)	> 100 µM (inactive)	–
COc1cc2c(cc1OC)[C@@H](C(O)c1ccccc1)NCC2 (some centres not stated)	> 100 µM (inactive)	> 100 µM (inactive)	> 100 µM (inactive)	> 100 µM (inactive)	> 100 µM (inactive)	> 100 µM (inactive)	–	> 100 µM (inactive)	> 100 µM (inactive)	> 100 µM (inactive)	> 100 µM (inactive)	> 100 µM (inactive)	> 100 µM (inactive)	> 100 µM (inactive)	54.6 µM (inactive)	> 100 µM (inactive)
